In publication PMC4823954, “From fighting depression to conquering tumors: a novel tricyclic thiazepine compound as a tubulin polymerization inhibitor” (Cell Death & Disease, 2016):

How the values were obtained:
Assay in all cases: KINOMEscan
Assay type in all cases: binding
Settings in all cases: read-out: % Ctrl
[1] = target: T1, BMPR2 (Homo sapiens, UniProt Q13873)
T1 construct: purchased DiscoveRx KINOMEscan
Outline: (§1)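 Competition binding panel of 442 non-mutant kinases: test compound at 5 and 10 μM competed with an active-site-directed ligand for 1 h with shaking. Bound kinase was eluted with 0.5 μM ligand and quantified by qPCR; %Ctrl = (compound − positive control)/(DMSO − positive control) × 100, lower meaning tighter binding.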

[2] = target: T2, PIK3CA(E545K) (Homo sapiens, UniProt P42336, E545K)
T2 construct: purchased DiscoveRx KINOMEscan

[3] = target: T3, ZAP70 (Homo sapiens, UniProt P43403)
T3 construct: purchased DiscoveRx KINOMEscan
Outline: as §1

[4] = target: T4, BLK (Homo sapiens, UniProt P51451)
T4 construct: purchased DiscoveRx KINOMEscan
Outline: as §1

[5] = target: T5, FRK (Homo sapiens, UniProt P42685)
T5 construct: purchased DiscoveRx KINOMEscan
Outline: as §1

[6] = target: T6, JAK1(JH1domain-catalytic) (Homo sapiens, UniProt P23458)
T6 construct: JAK1(JH1domain-catalytic); purchased DiscoveRx KINOMEscan
Outline: as §1

[7] = target: T7, p38-alpha (Homo sapiens, UniProt Q16539)
T7 construct: purchased DiscoveRx KINOMEscan
Outline: as §1

[8] = target: T8, SGK3 (Homo sapiens, UniProt Q96BR1)
T8 construct: purchased DiscoveRx KINOMEscan
Outline: as §1

[9] = target: T9, LZK (Homo sapiens, UniProt O43283)
T9 construct: purchased DiscoveRx KINOMEscan
Outline: as §1

[10] = target: T10, CDKL3 (Homo sapiens, UniProt Q8IVW4)
T10 construct: purchased DiscoveRx KINOMEscan
Outline: as §1

[11] = target: RPS6KA4(Kin.Dom.2-C-terminal) (Homo sapiens, UniProt O75676)
Outline: as §1

[12] = target: T11, RIPK4 (Homo sapiens, UniProt P57078)
T11 construct: purchased DiscoveRx KINOMEscan
Outline: as §1

[13] = target: T12, RSK3(Kin.Dom.1-N-terminal) (Homo sapiens, UniProt Q15349)
T12 construct: RSK3(Kin.Dom.1-N-terminal); purchased DiscoveRx KINOMEscan
Outline: as §1

[14] = target: T13, FYN (Homo sapiens, UniProt P06241)
T13 construct: purchased DiscoveRx KINOMEscan
Outline: as §1

[15] = target: T14, CDKL5 (Homo sapiens, UniProt O76039)
T14 construct: purchased DiscoveRx KINOMEscan
Outline: as §1

[16] = target: T15, PLK1 (Homo sapiens, UniProt P53350)
T15 construct: purchased DiscoveRx KINOMEscan
Outline: as §1

[17] = target: T16, PDPK1 (Homo sapiens, UniProt O15530)
T16 construct: purchased DiscoveRx KINOMEscan
Outline: as §1

[18] = target: T17, PHKG2 (Homo sapiens, UniProt P15735)
T17 construct: purchased DiscoveRx KINOMEscan
Outline: as §1

[19] = target: T18, ERN1 (Homo sapiens, UniProt O75460)
T18 construct: purchased DiscoveRx KINOMEscan
Outline: as §1

[20] = target: T19, EPHA4 (Homo sapiens, UniProt P54764)
T19 construct: purchased DiscoveRx KINOMEscan
Outline: as §1

[21] = target: T20, EGFR (Homo sapiens, UniProt P00533)
T20 construct: purchased DiscoveRx KINOMEscan
Outline: as §1

[22] = target: T21, PIK3CA(E542K) (Homo sapiens, UniProt P42336, E542K)
T21 construct: purchased DiscoveRx KINOMEscan

[23] = target: T22, YSK1 (Homo sapiens, UniProt O00506)
T22 construct: purchased DiscoveRx KINOMEscan
Outline: as §1

[24] = target: T23, EPHB3 (Homo sapiens, UniProt P54753)
T23 construct: purchased DiscoveRx KINOMEscan
Outline: as §1

[25] = target: T24, MYLK4 (Homo sapiens, UniProt Q86YV6)
T24 construct: purchased DiscoveRx KINOMEscan
Outline: as §1

[26] = target: T25, ERBB4 (Homo sapiens, UniProt Q15303)
T25 construct: purchased DiscoveRx KINOMEscan
Outline: as §1

[27] = target: T26, BMPR1A (Homo sapiens, UniProt P36894)
T26 construct: purchased DiscoveRx KINOMEscan
Outline: as §1

[28] = target: T27, MYLK2 (Homo sapiens, UniProt Q9H1R3)
T27 construct: purchased DiscoveRx KINOMEscan
Outline: as §1

[29] = target: T28, CDC2L2 (Homo sapiens, UniProt Q9UQ88)
T28 construct: purchased DiscoveRx KINOMEscan
Outline: as §1

T13 sequence (P06241 whole entry): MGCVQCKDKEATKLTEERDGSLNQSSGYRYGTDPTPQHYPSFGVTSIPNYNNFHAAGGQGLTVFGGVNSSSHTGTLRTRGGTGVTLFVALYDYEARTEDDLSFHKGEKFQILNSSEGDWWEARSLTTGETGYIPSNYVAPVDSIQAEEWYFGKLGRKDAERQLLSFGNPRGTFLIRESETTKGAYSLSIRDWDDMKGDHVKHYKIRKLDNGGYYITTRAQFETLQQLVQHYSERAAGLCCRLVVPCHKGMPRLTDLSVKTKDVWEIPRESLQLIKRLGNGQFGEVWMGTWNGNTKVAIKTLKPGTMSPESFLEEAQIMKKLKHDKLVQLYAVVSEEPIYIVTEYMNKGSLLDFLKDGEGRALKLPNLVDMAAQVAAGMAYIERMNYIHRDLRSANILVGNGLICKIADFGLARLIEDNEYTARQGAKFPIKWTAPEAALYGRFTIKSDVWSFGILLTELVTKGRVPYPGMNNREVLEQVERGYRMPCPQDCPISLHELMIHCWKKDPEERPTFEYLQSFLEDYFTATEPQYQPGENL
T24 sequence (Q86YV6 whole entry): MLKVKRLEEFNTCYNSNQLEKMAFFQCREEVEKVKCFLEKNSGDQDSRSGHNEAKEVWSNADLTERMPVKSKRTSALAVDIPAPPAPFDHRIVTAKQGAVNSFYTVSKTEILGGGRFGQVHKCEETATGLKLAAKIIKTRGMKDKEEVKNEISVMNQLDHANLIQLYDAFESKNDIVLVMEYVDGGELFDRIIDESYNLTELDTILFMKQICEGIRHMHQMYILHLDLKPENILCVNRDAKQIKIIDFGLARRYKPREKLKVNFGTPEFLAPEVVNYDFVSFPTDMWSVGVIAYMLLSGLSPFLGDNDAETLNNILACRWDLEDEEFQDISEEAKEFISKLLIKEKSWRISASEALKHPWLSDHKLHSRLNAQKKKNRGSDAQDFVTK
T17 sequence (P15735 whole entry): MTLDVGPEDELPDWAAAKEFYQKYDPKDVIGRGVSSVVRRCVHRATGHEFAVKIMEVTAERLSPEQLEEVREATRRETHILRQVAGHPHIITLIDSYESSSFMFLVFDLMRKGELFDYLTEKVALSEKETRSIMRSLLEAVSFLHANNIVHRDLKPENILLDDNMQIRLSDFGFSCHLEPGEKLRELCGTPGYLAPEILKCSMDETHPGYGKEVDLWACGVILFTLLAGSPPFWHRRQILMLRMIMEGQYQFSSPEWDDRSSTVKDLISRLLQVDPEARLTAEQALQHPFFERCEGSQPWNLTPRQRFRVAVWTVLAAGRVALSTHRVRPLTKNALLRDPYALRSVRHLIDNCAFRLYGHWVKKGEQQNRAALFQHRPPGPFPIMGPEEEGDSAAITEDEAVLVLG
T20 sequence (P00533 25-1210): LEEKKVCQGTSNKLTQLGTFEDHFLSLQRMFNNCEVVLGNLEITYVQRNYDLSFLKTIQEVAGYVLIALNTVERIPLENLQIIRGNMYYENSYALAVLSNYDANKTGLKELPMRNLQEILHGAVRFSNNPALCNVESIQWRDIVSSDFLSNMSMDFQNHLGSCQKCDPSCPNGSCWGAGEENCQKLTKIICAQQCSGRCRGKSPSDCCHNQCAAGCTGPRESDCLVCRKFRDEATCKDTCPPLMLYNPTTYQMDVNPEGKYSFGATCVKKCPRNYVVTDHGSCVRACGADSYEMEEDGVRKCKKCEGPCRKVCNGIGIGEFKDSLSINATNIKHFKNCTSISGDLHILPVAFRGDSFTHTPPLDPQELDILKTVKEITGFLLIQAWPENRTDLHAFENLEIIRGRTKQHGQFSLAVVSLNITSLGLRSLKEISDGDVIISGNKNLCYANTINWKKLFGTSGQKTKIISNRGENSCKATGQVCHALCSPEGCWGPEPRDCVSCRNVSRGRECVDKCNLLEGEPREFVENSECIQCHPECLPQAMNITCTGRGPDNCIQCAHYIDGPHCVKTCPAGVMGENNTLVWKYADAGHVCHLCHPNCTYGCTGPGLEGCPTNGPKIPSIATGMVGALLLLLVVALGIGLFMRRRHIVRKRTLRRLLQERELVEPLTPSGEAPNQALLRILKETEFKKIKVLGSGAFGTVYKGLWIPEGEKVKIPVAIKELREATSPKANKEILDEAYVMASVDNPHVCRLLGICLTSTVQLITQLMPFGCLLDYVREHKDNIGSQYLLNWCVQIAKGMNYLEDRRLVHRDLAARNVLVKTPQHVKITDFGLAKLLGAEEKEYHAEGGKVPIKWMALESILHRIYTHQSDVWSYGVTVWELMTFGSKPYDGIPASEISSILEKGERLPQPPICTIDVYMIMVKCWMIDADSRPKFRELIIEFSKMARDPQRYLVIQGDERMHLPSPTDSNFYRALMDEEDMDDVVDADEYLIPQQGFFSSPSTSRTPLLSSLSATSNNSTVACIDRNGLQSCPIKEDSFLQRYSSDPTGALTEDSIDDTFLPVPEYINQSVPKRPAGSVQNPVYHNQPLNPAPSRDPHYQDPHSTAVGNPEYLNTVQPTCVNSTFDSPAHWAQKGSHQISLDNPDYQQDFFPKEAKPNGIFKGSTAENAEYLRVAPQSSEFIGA
T25 sequence (Q15303 26-1308): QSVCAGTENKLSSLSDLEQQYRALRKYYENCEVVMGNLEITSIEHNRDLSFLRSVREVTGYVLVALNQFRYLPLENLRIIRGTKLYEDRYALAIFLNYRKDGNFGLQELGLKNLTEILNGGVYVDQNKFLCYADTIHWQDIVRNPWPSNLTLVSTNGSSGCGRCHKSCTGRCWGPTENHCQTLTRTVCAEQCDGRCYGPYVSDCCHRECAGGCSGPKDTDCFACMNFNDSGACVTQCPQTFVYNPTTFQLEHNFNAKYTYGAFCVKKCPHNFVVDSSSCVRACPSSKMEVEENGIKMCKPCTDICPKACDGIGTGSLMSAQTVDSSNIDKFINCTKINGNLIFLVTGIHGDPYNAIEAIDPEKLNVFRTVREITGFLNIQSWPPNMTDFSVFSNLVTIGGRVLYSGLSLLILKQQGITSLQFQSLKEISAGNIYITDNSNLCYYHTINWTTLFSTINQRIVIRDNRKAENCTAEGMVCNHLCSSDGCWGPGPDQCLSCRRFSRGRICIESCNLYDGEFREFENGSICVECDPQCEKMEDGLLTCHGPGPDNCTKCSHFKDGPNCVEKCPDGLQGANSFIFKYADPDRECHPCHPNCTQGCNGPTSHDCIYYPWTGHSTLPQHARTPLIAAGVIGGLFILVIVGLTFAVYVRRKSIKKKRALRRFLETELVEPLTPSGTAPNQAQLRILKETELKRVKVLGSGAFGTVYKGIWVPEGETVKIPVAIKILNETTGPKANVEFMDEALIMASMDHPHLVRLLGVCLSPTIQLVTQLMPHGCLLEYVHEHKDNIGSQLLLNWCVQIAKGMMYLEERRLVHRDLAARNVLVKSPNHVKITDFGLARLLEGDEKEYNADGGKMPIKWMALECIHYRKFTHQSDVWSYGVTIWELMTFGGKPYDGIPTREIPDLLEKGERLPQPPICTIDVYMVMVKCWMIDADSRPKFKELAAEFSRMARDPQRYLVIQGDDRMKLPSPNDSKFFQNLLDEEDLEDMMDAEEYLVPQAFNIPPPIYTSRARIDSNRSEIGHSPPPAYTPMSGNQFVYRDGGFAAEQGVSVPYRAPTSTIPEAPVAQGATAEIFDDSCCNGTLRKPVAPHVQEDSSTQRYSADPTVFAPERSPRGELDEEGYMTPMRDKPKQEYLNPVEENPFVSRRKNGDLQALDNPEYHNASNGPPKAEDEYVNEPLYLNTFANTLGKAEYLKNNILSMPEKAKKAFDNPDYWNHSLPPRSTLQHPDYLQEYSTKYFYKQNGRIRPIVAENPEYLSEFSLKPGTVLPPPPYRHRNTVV
T12 sequence (Q15349 1-388 limits assumed): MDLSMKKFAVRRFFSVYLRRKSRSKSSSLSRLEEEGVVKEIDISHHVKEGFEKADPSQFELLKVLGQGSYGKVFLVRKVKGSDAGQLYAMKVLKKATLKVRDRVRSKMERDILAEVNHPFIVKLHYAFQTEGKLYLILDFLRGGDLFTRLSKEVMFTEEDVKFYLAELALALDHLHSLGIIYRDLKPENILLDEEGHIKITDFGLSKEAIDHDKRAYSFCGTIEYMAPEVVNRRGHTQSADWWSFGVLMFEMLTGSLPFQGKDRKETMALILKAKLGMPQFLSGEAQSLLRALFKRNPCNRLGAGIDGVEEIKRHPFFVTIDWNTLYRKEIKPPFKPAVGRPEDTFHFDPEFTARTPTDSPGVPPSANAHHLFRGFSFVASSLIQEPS
T4 sequence (P51451 whole entry): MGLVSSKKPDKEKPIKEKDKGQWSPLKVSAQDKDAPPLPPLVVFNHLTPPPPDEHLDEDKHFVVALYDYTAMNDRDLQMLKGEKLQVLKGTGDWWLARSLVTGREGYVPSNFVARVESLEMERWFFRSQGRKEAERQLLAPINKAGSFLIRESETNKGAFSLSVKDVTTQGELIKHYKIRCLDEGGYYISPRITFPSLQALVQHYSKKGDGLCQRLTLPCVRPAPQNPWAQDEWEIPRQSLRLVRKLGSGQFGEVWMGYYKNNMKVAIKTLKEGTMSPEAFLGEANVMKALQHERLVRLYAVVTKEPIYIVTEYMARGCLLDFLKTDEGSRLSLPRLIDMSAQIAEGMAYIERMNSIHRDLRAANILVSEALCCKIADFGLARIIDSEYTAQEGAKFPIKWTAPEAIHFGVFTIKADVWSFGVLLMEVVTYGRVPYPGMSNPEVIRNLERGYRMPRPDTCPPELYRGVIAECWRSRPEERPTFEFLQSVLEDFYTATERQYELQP
T6 sequence (P23458 854-1154 limits assumed): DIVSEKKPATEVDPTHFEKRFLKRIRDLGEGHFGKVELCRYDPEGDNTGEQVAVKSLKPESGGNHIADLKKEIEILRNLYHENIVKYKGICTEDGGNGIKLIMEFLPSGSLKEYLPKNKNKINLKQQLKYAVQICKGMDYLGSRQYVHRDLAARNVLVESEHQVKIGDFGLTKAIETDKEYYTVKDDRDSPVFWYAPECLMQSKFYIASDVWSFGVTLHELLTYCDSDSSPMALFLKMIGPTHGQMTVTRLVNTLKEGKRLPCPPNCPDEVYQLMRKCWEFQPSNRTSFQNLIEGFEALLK

`Cc1ccc(C2=Nc3cccnc3S(=O)(=O)c3ccccc32)cc1` [TBPT, 6-(p-tolyl)benzo[f] pyrido[2,3-b][1,4] thiazepine 11,11-dioxide] was tested, and the remaining binding at 5 µM ([1]; 5 μM) was 85%, the remaining binding at 10 µM ([1]; 10 μM) was 100% and the remaining binding at 5 µM ([2]; 5 μM) was 81%. It also gave a remaining binding at 10 µM ([2]; 10 μM) of 100%, a remaining binding at 5 µM ([3]; 5 μM) of 100% and a remaining binding at 10 µM ([3]; 10 μM) of 99%. For the same compound, the remaining binding at 5 µM ([4]; 5 μM) was 88%, the remaining binding at 10 µM ([4]; 10 μM) was 88% and the remaining binding at 5 µM ([5]; 5 μM) was 100%. For the same compound, the remaining binding at 10 µM ([5]; 10 μM) was 99%, the remaining binding at 5 µM ([6]; 5 μM) was 95% and the remaining binding at 10 µM ([6]; 10 μM) was 89%. It also gave a remaining binding at 5 µM ([7]; 5 μM) of 63%, a remaining binding at 10 µM ([7]; 10 μM) of 100% and a remaining binding at 5 µM ([8]; 5 μM) of 100%. The remaining binding at 10 µM ([8]; 10 μM) was 99%, the remaining binding at 5 µM ([9]; 5 μM) was 100% and the remaining binding at 10 µM ([9]; 10 μM) was 93%. For the same compound, the remaining binding at 5 µM ([10]; 5 μM) was 77%, the remaining binding at 10 µM ([10]; 10 μM) was 74% and the remaining binding at 5 µM ([11]; 5 μM) was 100%. For the same compound, the remaining binding at 10 µM ([11]; 10 μM) was 90%, the remaining binding at 5 µM ([12]; 5 μM) was 100% and the remaining binding at 10 µM ([12]; 10 μM) was 100%. The remaining binding at 5 µM ([13]; 5 μM) was 100%, the remaining binding at 10 µM ([13]; 10 μM) was 82% and the remaining binding at 5 µM ([14]; 5 μM) was 85%. It also gave a remaining binding at 10 µM ([14]; 10 μM) of 95%, a remaining binding at 5 µM ([15]; 5 μM) of 100% and a remaining binding at 10 µM ([15]; 10 μM) of 100%. For the same compound, the remaining binding at 5 µM ([16]; 5 μM) was 76%, the remaining binding at 10 µM ([16]; 10 μM) was 80% and the remaining binding at 5 µM ([17]; 5 μM) was 100%. The remaining binding at 10 µM ([17]; 10 μM) was 100%, the remaining binding at 5 µM ([18]; 5 μM) was 100% and the remaining binding at 10 µM ([18]; 10 μM) was 100%. The remaining binding at 5 µM ([19]; 5 μM) was 92%, the remaining binding at 10 µM ([19]; 10 μM) was 100% and the remaining binding at 5 µM ([20]; 5 μM) was 100%. It also gave a remaining binding at 10 µM ([20]; 10 μM) of 96%, a remaining binding at 5 µM ([21]; 5 μM) of 100% and a remaining binding at 10 µM ([21]; 10 μM) of 91%. The remaining binding at 5 µM ([22]; 5 μM) was 93%, the remaining binding at 10 µM ([22]; 10 μM) was 97% and the remaining binding at 5 µM ([23]; 5 μM) was 99%. The remaining binding at 10 µM ([23]; 10 μM) was 100%, the remaining binding at 5 µM ([24]; 5 μM) was 96% and the remaining binding at 10 µM ([24]; 10 μM) was 100%. The remaining binding at 5 µM ([25]; 5 μM) was 94%, the remaining binding at 10 µM ([25]; 10 μM) was 99% and the remaining binding at 5 µM ([26]; 5 μM) was 93%. For the same compound, the remaining binding at 10 µM ([26]; 10 μM) was 99%, the remaining binding at 5 µM ([27]; 5 μM) was 97% and the remaining binding at 10 µM ([27]; 10 μM) was 80%. It also gave a remaining binding at 5 µM ([28]; 5 μM) of 100%, a remaining binding at 10 µM ([28]; 10 μM) of 82% and a remaining binding at 5 µM ([29]; 5 μM) of 100%. It also gave a remaining binding at 10 µM ([29]; 10 μM) of 100%.
